Structures can show the parent of a compound that is named as a salt. Where two headings read alike, the source gives them in different places.
Assays:
[1] = system: Nematospiroides dubius; assay: Anthelmintic efficacy against N. dubius in mice, single oral dose; assay type: in vivo, Nematospiroides dubius (in albino female mice); conditions: for inhibition in vivo at 20 mg/kg: single oral dose 20 mg./Kg.; for inhibition in vivo at 40 mg/kg: single oral dose 40 mg./Kg.; for inhibition in vivo at 4 mg/kg: single oral dose 4.0 mg./Kg.; for inhibition in vivo at 0.625 mg/kg: single oral dose 0.625 mg./Kg., adjusted to molar equivalents of tetramisole free base
Description: Albino female mice are each inoculated with about 20 infectious larvae of Nematospiroides dubius. This nematode is a representative of the economical important trichostrongylis worms of ruminants and other hosts, and of nematodes in general. Twenty-two days after inoculation, groups of four randomly selected mice containing adult N. dubius are given single oral doses of test compounds dissolved or suspended in 0.4 ml. of water per 20 gram mouse. At 26 or 27 days after inoculation, treated mice and in each test four randomly selected groups of untreated mice are necropsied. The number of worms in the small intestine of each mouse are determined by microscopic examination. Average worm numbers for each treated group and for the untreated controls are computed and the percent efficacy determined by the customary formula:
(Average Worms in Control - Average Worms in Treated)/(Average Worms in Control) X 100.

[2] = in vivo; conditions: for Approx. LD50 /ED50: chemotherapeutic index, mouse oral, N. dubius
Description: Data on the acute oral toxicity to mice of various single oral doses of the above compounds and several analogs were obtained by conventional procedures, (Table IX hereinafter).

[3] = Heligmosomoides polygyrus, po, as Base, single oral dose, mice, > indicates inactive at dose shown, read-out: Approx. ED50
[4] = Heligmosomoides polygyrus, po, mouse oral, Table IX, read-out: Approx. ED50 vs. N. dubius
[5] = Heligmosomoides polygyrus, po, single oral dose 10 mg./Kg., molar-adjusted, read-out: Percent Nematospiroides Activity
[6] = Heligmosomoides polygyrus, po, molar-adjusted, read-out: Percent Nematospiroides Activity
[7] = mouse, in vivo, po, Approx. LD50, mouse oral, Table IX
[8] = mouse, in vivo, po, LD50, mice, adjusted to molar equivalents of tetramisole free base
[9] = single oral dose 120 Mg./Kg., mice
[10] = Heligmosomoides polygyrus, po, single oral dose 2.0 mg./Kg., molar-adjusted, read-out: Percent Nematospiroides Activity
[11] = Heligmosomoides polygyrus, po, single oral dose 5.0 mg./Kg., molar-adjusted, read-out: Percent Nematospiroides Activity
[12] = Heligmosomoides polygyrus, po, single oral dose 1.25 mg./Kg., molar-adjusted, read-out: Percent Nematospiroides Activity
[13] = Heligmosomoides polygyrus, po, read-out: Percent Nematospiroides Activity

## CCC(CC)C(=O)Nc1cccc(C2CN3CCSC3=N2)c1 (racemic) [m-NH-CO-CH(C2 H5)2 dl]
[1]; [3]
  ED50: 7.5 mg/kg
[1]; [4]
  ED50: 7.5 mg/kg
[1]; [5]
  inhibition in vivo at 10 mg/kg: 85%
[1]; [6]
  inhibition in vivo at 20 mg/kg: 99%
  inhibition in vivo at 40 mg/kg: 100%
[2]; Table IX
  Approx. LD50 /ED50: 21
[2]; [7]
  LD50: 160 mg/kg
[2]; [8]
  LD50: ~160 mg/kg
[2]; single oral dose 80 Mg./Kg., mice
  Dead/Total: 0/6
[2]; [9]
  Dead/Total: 0/6
[2]; single oral dose 180 Mg./Kg., mice
  Dead/Total: 3/6

## COC(=O)Nc1cccc(C2CN3CCSC3=N2)c1 (racemic) [m-NH-CO-OCH3 dl, dl-m-(2,3,5,6-tetrahydroimidazo[2,1-b]thiazol-6-yl)carbanilic acid methyl ester, hydrochloride]
[1]; [3]
  ED50: 15 mg/kg
[1]; [4]
  ED50: 15 mg/kg
[1]; [5]
  inhibition in vivo at 10 mg/kg: 25%
[1]; [6]
  inhibition in vivo at 20 mg/kg: 96%
  inhibition in vivo at 40 mg/kg: 100%
[2]; Table IX
  Approx. LD50 /ED50: 10
[2]; [7]
  LD50: 150 mg/kg
[2]; [8]
  LD50: ~125 mg/kg
[2]; single oral dose 50 Mg./Kg., mice
  Dead/Total: 0/5
[2]; single oral dose 100 Mg./Kg., mice
  Dead/Total: 0/5
[2]; single oral dose 150 Mg./Kg., mice
  Dead/Total: 3/5
[2]; single oral dose 200 Mg./Kg., mice
  Dead/Total: 5/5

## O=CNc1cccc(C2CN3C=CSC3=N2)c1 (centres unmarked) [5,6-dihydro HNCHO]
[1]; [6]
  inhibition in vivo at 4 mg/kg: 64%
[1]; [5]
  inhibition in vivo at 10 mg/kg: 100%
[2]; [8]
  LD50: ~150 mg/kg

## Cl.Cl.Nc1cccc(C2CN3C=CSC3=N2)c1 (stereo not drawn) [5,6-dihydro m-NH2 dl, 6-(m-Aminophenyl)-5,6-dihydroimidazo[2,1-b]thiazole dihydrochloride]
[1]; [3]
  ED50: 1.5 mg/kg
[1]; [4]
  ED50: 1.5 mg/kg
[1]; [10]
  inhibition in vivo at 2 mg/kg: 53%
[1]; [11]
  inhibition in vivo at 5 mg/kg: 96%
[1]; [5]
  inhibition in vivo at 10 mg/kg: 100%
[2]; [7]
  LD50: 10 mg/kg
[2]; [8]
  LD50: ~80 mg/kg

## O=C(CCl)Nc1cccc(C2CN3CCSC3=N2)c1 (centres unmarked) [H--N--CO--CH2 Cl]
[1]; [12]
  inhibition in vivo at 1.25 mg/kg: 84%
[1]; [11]
  inhibition in vivo at 5 mg/kg: 100%
[1]; [6]
  inhibition in vivo at 40 mg/kg: 100%
[1]; Heligmosomoides polygyrus, po, single oral dose 50 mg./Kg., molar-adjusted, read-out: Percent Nematospiroides Activity
  inhibition in vivo at 50 mg/kg: 100%
[2]; [8]
  LD50: 50 to 60 mg/kg

## CC(=O)Nc1cccc(C2CN3CCSC3=N2)c1 (centres unmarked) [HN--CO--CH3]
[1]; [6]
  inhibition in vivo at 4 mg/kg: 66%
[1]; [5]
  inhibition in vivo at 10 mg/kg: 100%
[2]; [8]
  LD50: 40 to 60 mg/kg

## CCCCCCC(=O)Nc1cccc(C2CN3CCSC3=N2)c1 (centres unmarked) [HNCO(CH2)5 CH3]
[1]; single oral dose 1.25 mg./Kg., molar-adjusted
  Percent Nematospiroides Activity: 53%
[1]; single oral dose 2.0 mg./Kg., molar-adjusted
  Percent Nematospiroides Activity: 99%
[1]; single oral dose 5.0 mg./Kg., molar-adjusted
  Percent Nematospiroides Activity: 100%
[1]; single oral dose 10 mg./Kg., molar-adjusted
  Percent Nematospiroides Activity: 100%
[2]; mice, adjusted to molar equivalents of tetramisole free base
  LD50: 20 to 25 mg/kg

## CC(C)(C)CC(=O)Nc1cccc(C2CN3CCSC3=N2)c1 (centres unmarked) [HNCOCH2 C(CH3)2]
[1]; [11]
  inhibition in vivo at 5 mg/kg: 59%
[1]; [5]
  inhibition in vivo at 10 mg/kg: 98%
[2]; [8]
  LD50: 80 to 100 mg/kg

## Nc1ccc([N+](=O)[O-])c(C2CN3CCSC3=N2)c1 (centres unmarked) [R1 =H R4 =NO2]
[1]; Heligmosomoides polygyrus, po, continuation of Table X (R1/R4 disubstituted), read-out: ED50
  ED50: 2 mg/kg
[1]; [4]
  ED50: 2 mg/kg
[1]; [10]
  inhibition in vivo at 2 mg/kg: 43%
[1]; [6]
  inhibition in vivo at 4 mg/kg: 89%
[1]; [5]
  inhibition in vivo at 10 mg/kg: 100%
[2]; Table IX
  Approx. LD50 /ED50: 60
[2]; [7]
  LD50: 120 mg/kg
[2]; [8]
  LD50: 120 to 140 mg/kg
[2]; single oral dose 60 Mg./Kg., mice
  Dead/Total: 0/6
[2]; [9]
  Dead/Total: 2/6
[2]; single oral dose 240 Mg./Kg., mice
  Dead/Total: 6/6

## O=C(C=Cc1ccccc1)Nc1cccc(C2CN3CCSC3=N2)c1 (centres unmarked) [Table XII b1827]
[1]; [12]
  inhibition in vivo at 1.25 mg/kg: 60%
[1]; [10]
  inhibition in vivo at 2 mg/kg: 67%
[1]; [11]
  inhibition in vivo at 5 mg/kg: 100%
[1]; [5]
  inhibition in vivo at 10 mg/kg: 100%
[2]; [8]
  LD50: ~90 mg/kg

## O=C(Nc1cccc(C2CN3CCSC3=N2)c1)c1ccccc1 (centres unmarked) [Table XII b1839]
[1]; [12]
  inhibition in vivo at 1.25 mg/kg: 94%
[1]; [10]
  inhibition in vivo at 2 mg/kg: 100%
[2]; [8]
  LD50: 50 to 60 mg/kg

## COc1ccc(C(=O)Nc2cccc(C3CN4CCSC4=N3)c2)cc1 (centres unmarked) [Table XII b1843]
[1]; [13]
  inhibition in vivo at 0.625 mg/kg: 56%
[1]; [12]
  inhibition in vivo at 1.25 mg/kg: 58%
[1]; [10]
  inhibition in vivo at 2 mg/kg: 95%
[1]; [11]
  inhibition in vivo at 5 mg/kg: 100%
[2]; [8]
  LD50: 60 to 80 mg/kg

## O=C(Nc1cccc(C2CN3CCSC3=N2)c1)c1ccc(Cl)cc1 (centres unmarked) [Table XII b1847]
[1]; [13]
  inhibition in vivo at 0.625 mg/kg: 40%
[1]; [12]
  inhibition in vivo at 1.25 mg/kg: 63%
[1]; [10]
  inhibition in vivo at 2 mg/kg: 90%
[1]; [11]
  inhibition in vivo at 5 mg/kg: 100%
[2]; [8]
  LD50: ~80 mg/kg

## O=C(Nc1cccc(C2CN3CCSC3=N2)c1)c1cccc(Cl)c1 (centres unmarked) [Table XII b1851]
[1]; [13]
  inhibition in vivo at 0.625 mg/kg: 40%
[1]; [12]
  inhibition in vivo at 1.25 mg/kg: 52%
[1]; [10]
  inhibition in vivo at 2 mg/kg: 95%
[1]; [11]
  inhibition in vivo at 5 mg/kg: 97%
[2]; [8]
  LD50: 80 to 100 mg/kg
